Experiments:
MOG-induced EAE mice = experiment: MOG-induced EAE in mice, clinical score; format: in vivo
Description: 8-10 week old, male C57BL/6 mice were purchased from Janvier Lab (St Berthevin, France) and housed in a specific pathogen free (SPF) animal facility for one week before the start of the studies. Peptide antigen MOG35-55 (Myelin Oligodendrocyte Glycoprotein) ([…], SEQ ID NO:1, Polypeptide group, France) was dissolved in PBS and emulsified with an equal volume of Complete Freund's Adjuvant (CFA) containing 5 mg/mL of mycobacteria and administrated by subcutaneous injection at the dorsal flanks on day 0 at 200 μg/mouse. To ensure induction of reliable EAE, 200 ng of Bordetella pertussis toxin (Sigma) was given via intraperitoneal injection at day 0 and 2 (Cua, Sherlock et al. 2003; Zhang, Gran et al. 2003). Animals were treated with drug beginning 2 days before peptide injection. Animals were randomized into groups for treatment by weight, so that the average weight of each group was similar. The groups were segregated by cage. Compounds according to the invention were suspended in Carboxymethyl Cellulose (CMC) 1% (Sigma) and Tween80 0.1% (Sigma) by sonication and animals were dosed daily by gavage with 10 mL/kg body weight. The daily dose of Cpd. 1 was 30 mg/kg and vidofludimus (reference compound) at 60 mg/kg in protocol 1 to assess IL-17 A and IL-17F secretion from splenocytes ex vivo. In protocol 2, mice were treated with Cpd. 1 at 3 and 10 mg/Kg or T4 compound at 1 and 10 mg/kg daily by gavage to assess the clinical score. Clinical assessment of EAE was performed daily according to the following criteria: 0) no disease, 1) limp tail, 2) weak/partially paralyzed hind legs, 3) completely paralyzed hind legs, 4) complete hind and partial front leg paralysis, and 5) complete paralysis/death. For Cytokine quantifications, mice were euthanized 20 days after EAE induction. Spleen-isolated cells were collected and adjusted to 2×10^6 cells/mL. Cells were cultured in complete RPMI medium (RPMI supplemented with 10% of fetal calf serum, 1% glutamine, and 1% penicillin/streptomycin). Spleen cells were stimulated with MOG (20 μg/mL) (Polypeptide group, France). Cytokine levels were evaluated 48 h later by ELISA (R&D Systems Europe) or HTRF (CisBio, France) in culture supernatants using IL-17A and IL-17-F according to the manufacturer's protocols. The statistical significance was based on Student's t test (p<0.05, unpaired test).

human RORγt = biological target: T1, human RORγt (Homo sapiens, UniProt P51449); experiment: RORE luciferase/RORγt transactivation assay; format: cell-based; design: expressed in transfected cells; details: COS-7 cells transfected with IL-17 promoter luciferase reporter and RORγt plasmid, 20 h
T1 sequence (P51449 1-497 isoform P51449-2): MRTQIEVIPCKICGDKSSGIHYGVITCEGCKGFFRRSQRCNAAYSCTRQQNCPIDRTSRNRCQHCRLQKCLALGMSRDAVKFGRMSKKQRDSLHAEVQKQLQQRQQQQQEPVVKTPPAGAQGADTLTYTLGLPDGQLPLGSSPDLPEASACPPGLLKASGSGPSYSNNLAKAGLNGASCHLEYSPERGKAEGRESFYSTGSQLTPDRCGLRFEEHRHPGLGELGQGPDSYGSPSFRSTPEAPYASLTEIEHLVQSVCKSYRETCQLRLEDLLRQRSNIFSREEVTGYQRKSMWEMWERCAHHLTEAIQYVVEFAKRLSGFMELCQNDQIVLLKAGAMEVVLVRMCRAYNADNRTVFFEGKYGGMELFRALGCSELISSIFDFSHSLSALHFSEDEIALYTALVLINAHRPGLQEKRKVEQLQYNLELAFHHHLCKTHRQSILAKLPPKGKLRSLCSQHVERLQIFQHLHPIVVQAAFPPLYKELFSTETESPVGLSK
From the text: It is well known that RORγ binds to a conserved non-coding sequence (CNS) enhancer element in the IL-17 promoter. Accordingly, we have used in this assay a luciferase reporter gene construct that contains the human IL-17 promoter fragment with RORγ-specific CNS enhancer element and a RORγt overexpressing plasmid, to indirectly assess the effect of compounds on RORγ activity. Inhibition of RORγ activity by test compounds will result in a decrease in luciferase activity in COS-7 cells transfected with the reporter construct.
Monkey Kidney COS-7 cell line are maintained in a standard culture medium Dulbecco's modified Eagle's minimal (DMEM) medium supplemented with 10% fetal calf serum, 1% sodium pyruvate, 1% essential amino acids and 1% antibiotics at 37° C. in a humidified atmosphere of 5% CO2 and 95% air. Culture medium was changed every 2 days.
The 4.3 Kb human IL-17 promoter containing the RORγ-specific CNS enhancer element was PCR amplified from human genomic DNA and cloned into a pGL3-TKLuc2Cp reporter plasmid. To overexpress RORγt, the full-length cDNA of human RORγt (identical to published sequence NM 001001523) was cloned without any restriction into pcdna3.1DV5-His-topo to generate the RORγt overexpression plasmid “RORγt_FL_h_pcDNA3.1DV5-His-TOPO_1”.
The luciferase reporter plasmid and the RORγt overexpression plasmid were transfected into COS-7 cell line using 4 μLJetPEITM/μg of DNA. Briefly, 150 ng of DNA (ration ½ between RORE-Tk Luc2Cp and cDNA RORγt or the empty vector for the negative control) was served to transfect adherent COS-7 cells in a […] culture flask, in complete medium (see cos-7 cell line culture). Cells were incubated for 24 hours in a humidified atmosphere of 5% CO2 and 95% air
Cells were then detached (using trypsin) and washed by centrifugation at 300 g for 10 minutes. Cell pellet was resuspended in serum free/phenol red free DMEM and seeded in 384 well plates at a density of 10000 cells/well and then incubated for 4 h at 37° C.
Compounds were dissolved in 100% DMSO to obtain 10 mM stock solutions. For each compound, test concentrations were diluted in serum free/phenol red free DMEM using the Genesis Freedom 200™ (TECAN) and added to the cells to obtain a 0.3% DMSO final concentration (in a final volume of 40 μL per well). T091317 was used as reference compound. Cells were incubated in presence of compounds for an additional 20 h at 37° C. in a humidified atmosphere of 5% CO2 and 95% air
The luciferase activity was then measured with 40 μL/well steady-Glo Luciferase assay system (Promega, Madison, Wis.) and after incubation at room temperature for 30 minutes. The luminescence was estimated using the Ultra384 reader (TECAN). Data were collected and analyzed using GraphPad Prism software (GraphPad Software V5.02, San Diego Calif. USA). IC50 in μM and Emax in % were reported for each compound.

IC50 (human RORγt) [nM]	SMILES	onset of EAE (MOG-induced EAE mice; administered p/os (orally) for 20 days)	EAE clinical score (MOG-induced EAE mice; daily by gavage, Cpd. 1 at 3 and 10 mg/Kg, T4 compound at 1 and 10 mg/kg)
< 1000	O=C(O)CCc1c[nH]c2ccc(CC(=O)NC(c3ccccc3)c3ccccc3N3CCCCC3)cc12 (stereo not drawn) [Cpd. 1, 3-{5-[({phenyl[2-(piperidin-1-yl)phenyl]methyl}carbamoyl)methyl]-1H-indol-3-yl}propanoic acid]	able to delay the onset of EAE	improvement was apparent
< 1000	O=C(O)CCc1c[nH]c2ccc(CC(=O)NC(c3cccc(F)c3)c3ccccc3N3CCCCC3)cc12 (stereo not drawn) [Cpd. 3, 3-[5-({[(3-fluorophenyl)[2-(piperidin-1-yl)phenyl]methyl]carbamoyl}methyl)-1H-indol-3-yl]propanoic acid]		
< 1000	Cc1ccc(C(NC(=O)Cc2ccc3[nH]cc(CCC(=O)O)c3c2)c2ccccc2)c(N2CCCC2)c1 (stereo not drawn) [Cpd. 5, 3-{5-[({[4-methyl-2-(pyrrolidin-1-yl)phenyl](phenyl)methyl}carbamoyl)methyl]-1H-indol-3-yl}propanoic acid]		
< 1000	CC(C)CC(NC(=O)Cc1ccc2[nH]cc(CCC(=O)O)c2c1)c1ccccc1N1CCCCC1 (stereo not drawn) [Cpd. 29, 3-{5-[({3-methyl-1-[2-(piperidin-1-yl)phenyl]butyl}carbamoyl)methyl]-1H-indol-3-yl}propanoic acid]		

Reference: patent US9902725B2, “Heterocyclic derivatives as RORgamma modulators” (GENFIT, priority 2014, dated 2018)
